From patent US8969397B2, “Systems and methods to treat pain locally” (Warsaw Orthopedic, Inc., priority 2004, dated 2015)

Experiments:
[1] = tested on: chronic constriction injury (CCl) of the sciatic nerve; test: Mechanical (tactile) allodynia, von Frey filaments, after chronic constriction injury; type: in vivo, rat; settings: for pain sensitivity in the mechanical allodynia test, in words / decrease in pain sensitivity, mechanical allodynia test: Example 4, FIG. 5B; for sensitivity in mechanical allodynia paradigm compared to controls: Example 3, FIG. 4, Days 8, 15 and 22 following CCl
Method: (§1) The behavioral animal model of chronic constriction injury (“CCl”) was chosen to evaluate the efficacy of NFκB inhibitors as a pain treatment. This model may mimic pain associated with sciatica in humans. To induce CCl, each animal was anesthetized by intraperitoneal (“i.p.”) injection of sodium pentobarbital at a dose of 60 mg/kg body weight. The animal's right common sciatic nerve was exposed and freed from adherent tissue at mid-thigh by separating the muscle (biceps femoris) by blunt dissection. Four loose ligatures were placed 1 mm apart, using chromic gut (4-0 absorbable suture, Jorgensen Laboratories Inc., Loveland, Colo.).
The ability of sulfasalazine to inhibit pain was also evaluated using a different sensitivity measure following CCl, namely mechanical (or tactile) allodynia. In this study, mechanical allodynia was determined in reaction to probing with von Frey filaments (Stoelting, Wood Dale, Ill.). Mechanical sensitivity was measured on Days 8, 15 and 22 following CCl by determining the median 50% foot withdrawal threshold for von Frey filaments using the up-down method described in Chaplan et al. (J Neurosci Methods 1994; 54:55) which is incorporated by reference herein for its teachings regarding the up-down method. Rats were placed under a plastic cover (9×9×20 cm) on a metal mesh floor. The area tested was the middle glabrous area between the footpads of the plantar surface of the injured hind paw within the L4 innervation area. The plantar area was touched with a series of 9 von Frey hairs with approximately exponentially incremental bending forces (von Frey values: 3.61, 3.8, 4.0, 4.2, 4.41, 4.6, 4.8, 5.0, and 5.2; equivalent to: 0.41, 0.63, 1.0, 1.58, 2.51, 4.07, 6.31, 10, and 15.8 g). The von Frey hair was presented perpendicular to the plantar surface with sufficient force to cause slight bending and held for approximately 3 to 4 seconds. Abrupt withdrawal of the foot (paw flinching) was recorded as a response. Any rat showing a mechanical threshold of more than 3.24 g was eliminated from the study.

[2] = tested on: chronic constriction injury (CCl) of the sciatic nerve; test: Thermal hyperalgesia test (paw withdrawal latency) after chronic constriction injury; type: in vivo, rat; settings: for increase in paw withdrawal latency over baseline: 0.1 mg/kg; for mean paw withdrawal latency over baseline: Example 1, FIG. 2
Method: as §1
Animal behavioral testing was conducted on Days 7, 14 and 21 after CCl. In the thermal hyperalgesia test, animals were placed in the clear plastic chamber of a plantar analgesia instrument and allowed to acclimate to the environment for 15 minutes. After the acclimation period, a radiant (heat) beam source stimulus was applied to the CCl hind paw of each animal. The heat source device was set at an intensity of 50, and a maximum latency period of 15 seconds was set to prevent tissue damage according to the recommendations of the instrument manufacturer. If a paw withdrawal occurred within the 15 second period, an automated control interrupted both the stimulus and timer, turning off the radiant beam and recording the latency of time to paw withdrawal. Data was analyzed using a one-way analysis of variance at each test day.
Specifically, the same methods as described above were used except that sulfasalazine was administered at doses of 5 mg/kg; 1 mg/kg or 0.2 mg/kg.
Following the previous experiment, the effect of local doses of clonidine on pain sensitivity was explored. Animals were administered vehicle or test substances through a subcutaneously implanted Alzet pump. Again, the previously described methods for CCl and paw withdrawal latency measurements were followed except that in the presently described experiment animals received either vehicle control; 1 μg/hour Enbrel® as a positive control; 0.01 μg/hour clonidine; 0.05 μg/hour clonidine; or 0.25 μg/hour clonidine.

[3] = tested on: Complete Freund's Adjuvant (CFA) inflammatory pain model; settings: spinal administration; cited from earlier work
[4] = rat, in vivo, 100 mg/kg

## S=C(S)N1CCCC1 [PDTC, pyrollidinedithiocarbamate]
[1]; compared to animals receiving vehicle or Enbrel
  pain sensitivity in the mechanical allodynia test, in words: showed some effect in decreasing pain sensitivity
[2]; Example 4, FIG. 5A, 20 mg/kg or 100 mg/kg, not as effective as other NFκB inhibiting compounds
  paw withdrawal latencies versus control levels: did increase paw withdrawal latencies over control levels
[3]
  mechanical allodynia: significantly reduce
  thermal hyperalgesia: significantly reduce
[4]
  drug toxicity: removed from the study following the second day of testing due to drug toxicity

## Clc1cccc(Cl)c1N=C1NCCN1 [clonidine]
[1]; 0.1 mg/kg, day 8
  decrease in pain sensitivity, mechanical allodynia test: about 58%
[1]; 0.1 mg/kg, day 15
  decrease in pain sensitivity, mechanical allodynia test: ~20%
[1]; 0.1 mg/kg, day 22
  decrease in pain sensitivity, mechanical allodynia test: ~48%
[1]; low dose (0.02 mg/kg), effect not as strong
  pain sensitivity in the mechanical allodynia test, in words: decreased sensitivity
[2]; Example 4, FIG. 5A, test day 7
  increase in paw withdrawal latency over baseline: about 78%
[2]; Example 4, FIG. 5A, test day 21
  increase in paw withdrawal latency over baseline: ~61%
[2]; Example 4, FIG. 5A, test day 41
  increase in paw withdrawal latency over baseline: ~60%
[2]; Example 5, FIG. 6, subcutaneously implanted Alzet pump, 0.01 μg/hour, test day 7
  paw withdrawal latency over baseline: about 60%
[2]; Example 5, FIG. 6, subcutaneously implanted Alzet pump, 0.01 μg/hour, test day 14
  paw withdrawal latency over baseline: ~64%
[2]; Example 5, FIG. 6, subcutaneously implanted Alzet pump, 0.01 μg/hour, test day 21
  paw withdrawal latency over baseline: ~79%
[2]; Example 5, FIG. 6, subcutaneously implanted Alzet pump, 0.05 μg/hour, test day 7
  paw withdrawal latency over baseline: about 68%
[2]; Example 5, FIG. 6, subcutaneously implanted Alzet pump, 0.05 μg/hour, test day 14
  paw withdrawal latency over baseline: ~64%
[2]; Example 5, FIG. 6, subcutaneously implanted Alzet pump, 0.05 μg/hour, test day 21
  paw withdrawal latency over baseline: ~83%
[2]; Example 5, FIG. 6, subcutaneously implanted Alzet pump, 0.25 μg/hour, test day 7
  paw withdrawal latency over baseline: about 63%
[2]; Example 5, FIG. 6, subcutaneously implanted Alzet pump, 0.25 μg/hour, test day 14
  paw withdrawal latency over baseline: ~70%
[2]; Example 5, FIG. 6, subcutaneously implanted Alzet pump, 0.25 μg/hour, test day 21
  paw withdrawal latency over baseline: ~82%
[2]; Example 5, local dosing by pump
  dose reduction without loss of efficacy: 25 fold

## O=C(O)c1cc(/N=N/c2ccc(S(=O)(=O)Nc3ccccn3)cc2)ccc1O [sulfasalazine]
[1]
  sensitivity in mechanical allodynia paradigm compared to controls: decreased sensitivity
[2]; 5 mg/kg, test day 7
  mean paw withdrawal latency over baseline: about 80%
[2]; 5 mg/kg, test day 14
  mean paw withdrawal latency over baseline: ~83%
[2]; 5 mg/kg, test day 21
  mean paw withdrawal latency over baseline: ~87%
[2]; 50 mg/kg, test day 7
  mean paw withdrawal latency over baseline: about 74%
[2]; 50 mg/kg, test day 14
  mean paw withdrawal latency over baseline: ~79%
[2]; 50 mg/kg, test day 21
  mean paw withdrawal latency over baseline: ~83%

## CC1=C(CC(=O)O)c2cc(F)ccc2/C1=C\c1ccc([S+](C)[O-])cc1 (centres unmarked) [sulindac]
[1]; 2 mg/kg, day 8
  decrease in pain sensitivity, mechanical allodynia test: about 66%
[1]; 2 mg/kg, day 15
  decrease in pain sensitivity, mechanical allodynia test: ~50%
[1]; 2 mg/kg, day 22
  decrease in pain sensitivity, mechanical allodynia test: ~35%
[1]; 10 mg/kg, day 8
  decrease in pain sensitivity, mechanical allodynia test: about 68%
[1]; 10 mg/kg, day 15
  decrease in pain sensitivity, mechanical allodynia test: about 58%
[1]; 10 mg/kg, day 22
  decrease in pain sensitivity, mechanical allodynia test: ~60%
[2]; Example 4, FIG. 5A, 2 mg/kg, all three test days
  paw withdrawal latency over baseline: about 65%
[2]; Example 4, FIG. 5A, 10 mg/kg, test day 7
  paw withdrawal latency over baseline: about 65%
[2]; Example 4, FIG. 5A, 10 mg/kg, test day 21
  paw withdrawal latency over baseline: about 75%
[2]; Example 4, FIG. 5A, 10 mg/kg, test day 41
  paw withdrawal latency over baseline: ~81%

## Enbrel®
[1]
  sensitivity in mechanical allodynia paradigm compared to controls: decreased sensitivity
[2]; 3 mg/kg, test day 7
  mean paw withdrawal latency over baseline: about 60%
[2]; 3 mg/kg, test day 14
  mean paw withdrawal latency over baseline: ~63%
[2]; 3 mg/kg, test day 21
  mean paw withdrawal latency over baseline: ~75%
[2]; Example 2, FIG. 3, positive control, test day 7
  paw withdrawal latency over baseline: about 51%
[2]; Example 2, FIG. 3, positive control, test day 14
  paw withdrawal latency over baseline: ~63%
[2]; Example 2, FIG. 3, positive control, test day 21
  paw withdrawal latency over baseline: ~62%
[2]; Example 4, FIG. 5A, 3 mg/kg, all three test days
  paw withdrawal latency over baseline, average: about 51%
[2]; Example 5, FIG. 6, subcutaneously implanted Alzet pump, 1 μg/hour, test day 7
  paw withdrawal latency over baseline: about 45%
[2]; Example 5, FIG. 6, subcutaneously implanted Alzet pump, 1 μg/hour, test day 14
  paw withdrawal latency over baseline: about 60%
[2]; Example 5, FIG. 6, subcutaneously implanted Alzet pump, 1 μg/hour, test day 21
  paw withdrawal latency over baseline: ~71%
